# Assay results reported in patent publication US7608630B2, “Marasmius androsaceus L.es Fr extract, piperidone derivative, and their use for the preparation of hypertensives” (Hainan Yangpu New Special Pharmaceutical Co., Ltd., priority 2004, dated 2009).
# Values joined by “and” are separate entries in the source; they are usually repeats but may differ in a detail not shown here. Identical values can stand only once.
# What was measured:
# blood pressure of cats = assay: Reduction of blood pressure of cat; assay type: in vivo; conditions: cats
# Experimental: A spontaneously hypertensive rat (SHR) was anesthetized with 40 mg/ml pentobarbital, and fixed by its back on an experimental stand. The skin at its neck was cut open after removing hair, and thereafter the right common carotid artery was separated with its proximal end being clamped by a artery clamp and its axifugal end being ligated by a thread. A V-shape cut was made with scissors at the axifugal end, into which an arterial cannula filled with heparin physiological saline was inserted. The arterial cannula was connected with a blood pressure transducer, and then the blood pressure transducer was connected to a computer-controlled three-way physiological-pharmacological recorder. The right femoral vein of the rat was separated and intubated for the injection of a drug. When the blood pressure became stable (i.e., the blood pressure contraction curve became straight), the rat was administered by intravenous route.
# Five cats of 2.5-3.2 kg were administered orally and intravenously respectively according to the method in Example 8, and then their systolic pressure and diastolic pressure were determined using normal cats non-administered as a control group.
# [1] = test system: ileum smooth muscle of guinea pig; assay: Effects on ileum smooth muscle of guinea pig (automatic rhythmic contraction of isolated ileum section)
# Experimental: The section was clamped at its both ends with frog heart clips, and placed in a perfusion tank with the lower end being fixed at the bottom of the tank and the top end being connected by a thread to a tensile transducer of a two-way electrophysiolograph, so that the automatic rhythmic contraction of the ileum section was recorded. The Tai's nutrient solution in the tank was kept at a temperature of 35° C., into which pure […] was bubbled. […] The normal contraction curve of the ileum section was firstly recorded using isoprenaline as a positive control.
# [2] = 5 mg/kg iv, before administration
# [3] = 5 mg/kg iv, before administration, 5 mg/kg
# [4] = 10 mg/kg o.s, 10 min after administration
# [5] = 10 mg/kg o.s, 10 min after administration, 10 mg/kg
# [6] = 10 mg/kg o.s, 20 min after administration
# [7] = 10 mg/kg o.s, 20 min after administration, 10 mg/kg
# [8] = 10 mg/kg o.s, 30 min after administration
# [9] = 10 mg/kg o.s, 30 min after administration, 10 mg/kg
# [10] = 10 mg/kg o.s, 40 min after administration
# [11] = 10 mg/kg o.s, 40 min after administration, 10 mg/kg
# [12] = 10 mg/kg o.s, 50 min after administration
# [13] = 10 mg/kg o.s, 50 min after administration, 10 mg/kg
# [14] = 10 mg/kg o.s, 60 min after administration
# [15] = 10 mg/kg o.s, 60 min after administration, 10 mg/kg
# [16] = 10 mg/kg o.s, 90 min after administration
# [17] = 10 mg/kg o.s, 90 min after administration, 10 mg/kg
# [18] = 10 mg/kg o.s, 120 min after administration
# [19] = 10 mg/kg o.s, 120 min after administration, 10 mg/kg
# [20] = 10 mg/kg o.s, 150 min after administration
# [21] = 10 mg/kg o.s, 150 min after administration, 10 mg/kg
# [22] = 10 mg/kg o.s, 180 min after administration
# [23] = 10 mg/kg o.s, 180 min after administration, 10 mg/kg
# [24] = 10 mg/kg o.s, before administration
# [25] = 10 mg/kg o.s, before administration, 10 mg/kg
compound,measurement,setting,value
"CC1(C)CNCC(C)(C)C1=O [Compound of formula II, 3,3,5,5-tetramethyl-4-piperidone]","Systolic pressure, Animal 1-4 individually","blood pressure of cats; 5 mg/kg iv, 180 min after administration, 5 mg/kg",187 mmHg and 176 mmHg and 212 mmHg and 165 mmHg
same,Average Diastolic pressure,blood pressure of cats; [2],146.25 mmHg
same,Average Systolic pressure,blood pressure of cats; [2],199.5 mmHg
same,"Diastolic pressure, Animal 1-4 individually",blood pressure of cats; [3],169 mmHg and 138 mmHg and 163 mmHg and 115 mmHg
same,"Systolic pressure, Animal 1-4 individually",blood pressure of cats; [3],226 mmHg and 183 mmHg and 211 mmHg and 178 mmHg
same,Average Diastolic pressure,blood pressure of cats; [4],119 mmHg
same,Average Systolic pressure,blood pressure of cats; [4],166.25 mmHg
same,"Diastolic pressure, individual animals",blood pressure of cats; [5],143 mmHg and 145 mmHg and 112 mmHg and 76 mmHg
same,"Systolic pressure, Animal 1-4 individually",blood pressure of cats; [5],190 mmHg and 180 mmHg and 159 mmHg and 136 mmHg
same,Average Diastolic pressure,blood pressure of cats; [6],107.25 mmHg
same,Average Systolic pressure,blood pressure of cats; [6],153 mmHg
same,"Diastolic pressure, individual animals",blood pressure of cats; [7],130 mmHg and 136 mmHg and 91 mmHg and 72 mmHg
same,"Systolic pressure, Animal 1-4 individually",blood pressure of cats; [7],170 mmHg and 181 mmHg and 138 mmHg and 123 mmHg
same,Average Diastolic pressure,blood pressure of cats; [8],96 mmHg
same,Average Systolic pressure,blood pressure of cats; [8],140.5 mmHg
same,"Diastolic pressure, individual animals",blood pressure of cats; [9],110 mmHg and 108 mmHg and 91 mmHg and 75 mmHg
same,"Systolic pressure, Animal 1-4 individually",blood pressure of cats; [9],154 mmHg and 140 mmHg and 138 mmHg and 130 mmHg
same,Average Diastolic pressure,blood pressure of cats; [10],95.25 mmHg
same,Average Systolic pressure,blood pressure of cats; [10],140.5 mmHg
same,"Diastolic pressure, individual animals",blood pressure of cats; [11],107 mmHg and 100 mmHg and 95 mmHg and 79 mmHg
same,"Systolic pressure, Animal 1-4 individually",blood pressure of cats; [11],146 mmHg and 133 mmHg and 143 mmHg and 140 mmHg
same,Average Diastolic pressure,blood pressure of cats; [12],101 mmHg
same,Average Systolic pressure,blood pressure of cats; [12],144.25 mmHg
same,"Diastolic pressure, individual animals",blood pressure of cats; [13],110 mmHg and 116 mmHg and 95 mmHg and 83 mmHg
same,"Systolic pressure, Animal 1-4 individually",blood pressure of cats; [13],149 mmHg and 140 mmHg and 144 mmHg (2×)
same,Average Diastolic pressure,blood pressure of cats; [14],103 mmHg
same,Average Systolic pressure,blood pressure of cats; [14],144 mmHg
same,"Diastolic pressure, individual animals",blood pressure of cats; [15],110 mmHg and 117 mmHg and 102 mmHg and 83 mmHg
same,"Systolic pressure, Animal 1-4 individually",blood pressure of cats; [15],149 mmHg and 153 mmHg and 130 mmHg and 144 mmHg
same,Average Diastolic pressure,blood pressure of cats; [16],103.75 mmHg
same,Average Systolic pressure,blood pressure of cats; [16],157 mmHg
same,"Diastolic pressure, individual animals",blood pressure of cats; [17],102 mmHg and 120 mmHg and 97 mmHg and 96 mmHg
same,"Systolic pressure, Animal 1-4 individually",blood pressure of cats; [17],154 mmHg (2×) and 180 mmHg and 140 mmHg
same,Average Diastolic pressure,blood pressure of cats; [18],108.25 mmHg
same,Average Systolic pressure,blood pressure of cats; [18],165 mmHg
same,"Diastolic pressure, individual animals",blood pressure of cats; [19],93 mmHg and 154 mmHg and 96 mmHg and 90 mmHg
same,"Systolic pressure, Animal 1-4 individually",blood pressure of cats; [19],146 mmHg and 195 mmHg and 163 mmHg and 156 mmHg
same,Average Diastolic pressure,blood pressure of cats; [20],111.75 mmHg
same,Average Systolic pressure,blood pressure of cats; [20],169.25 mmHg
same,"Diastolic pressure, individual animals",blood pressure of cats; [21],93 mmHg and 161 mmHg and 109 mmHg and 84 mmHg
same,"Systolic pressure, Animal 1-4 individually",blood pressure of cats; [21],146 mmHg and 206 mmHg and 168 mmHg and 157 mmHg
same,Average Diastolic pressure,blood pressure of cats; [22],117.5 mmHg
same,Average Systolic pressure,blood pressure of cats; [22],176.25 mmHg
same,"Diastolic pressure, individual animals",blood pressure of cats; [23],107 mmHg and 164 mmHg and 112 mmHg and 87 mmHg
same,"Systolic pressure, Animal 1-4 individually",blood pressure of cats; [23],158 mmHg and 213 mmHg and 170 mmHg and 164 mmHg
same,Average Systolic pressure,"blood pressure of cats; 10 mg/kg o.s, 210 min after administration",176.5 mmHg
same,"Systolic pressure, Animal 1-4 individually","blood pressure of cats; 10 mg/kg o.s, 210 min after administration, 10 mg/kg",159 mmHg and 213 mmHg and 170 mmHg and 164 mmHg
same,Average Systolic pressure,"blood pressure of cats; 10 mg/kg o.s, 240 min after administration",182.75 mmHg
same,"Systolic pressure, Animal 1-4 individually","blood pressure of cats; 10 mg/kg o.s, 240 min after administration, 10 mg/kg",178 mmHg and 213 mmHg and 176 mmHg and 164 mmHg
same,Average Diastolic pressure,blood pressure of cats; [24],147.5 mmHg
same,Average Systolic pressure,blood pressure of cats; [24],202.5 mmHg
same,"Diastolic pressure, individual animals",blood pressure of cats; [25],143 mmHg and 165 mmHg and 145 mmHg and 137 mmHg
same,"Systolic pressure, Animal 1-4 individually",blood pressure of cats; [25],191 mmHg and 215 mmHg and 196 mmHg and 208 mmHg
same,Relaxation Time,[1]; concentration 1 × 10^−4 mg/ml,7 h
same,Time of taking effect,[1]; concentration 1 × 10^−4 mg/ml,2 min
same,inhibition of the automatic rhythmic contraction of ileum section,[1]; concentration range 5×10^−4 to 10×10^−2 mg/ml,inhibit the automatic rhythmic contraction of ileum section
same,inhibition of the automatic rhythmic contraction of the ileum section,[1]; different concentrations,could inhibit the automatic rhythmic contraction of the ileum section
